Results on 2 compounds are retold here after article PMC3202988 (Nature chemical biology, 2011).

This assay addresses T1, OGA (O-GlcNAcase) (Homo sapiens, UniProt O60502).
T1 sequence (O60502 1-916): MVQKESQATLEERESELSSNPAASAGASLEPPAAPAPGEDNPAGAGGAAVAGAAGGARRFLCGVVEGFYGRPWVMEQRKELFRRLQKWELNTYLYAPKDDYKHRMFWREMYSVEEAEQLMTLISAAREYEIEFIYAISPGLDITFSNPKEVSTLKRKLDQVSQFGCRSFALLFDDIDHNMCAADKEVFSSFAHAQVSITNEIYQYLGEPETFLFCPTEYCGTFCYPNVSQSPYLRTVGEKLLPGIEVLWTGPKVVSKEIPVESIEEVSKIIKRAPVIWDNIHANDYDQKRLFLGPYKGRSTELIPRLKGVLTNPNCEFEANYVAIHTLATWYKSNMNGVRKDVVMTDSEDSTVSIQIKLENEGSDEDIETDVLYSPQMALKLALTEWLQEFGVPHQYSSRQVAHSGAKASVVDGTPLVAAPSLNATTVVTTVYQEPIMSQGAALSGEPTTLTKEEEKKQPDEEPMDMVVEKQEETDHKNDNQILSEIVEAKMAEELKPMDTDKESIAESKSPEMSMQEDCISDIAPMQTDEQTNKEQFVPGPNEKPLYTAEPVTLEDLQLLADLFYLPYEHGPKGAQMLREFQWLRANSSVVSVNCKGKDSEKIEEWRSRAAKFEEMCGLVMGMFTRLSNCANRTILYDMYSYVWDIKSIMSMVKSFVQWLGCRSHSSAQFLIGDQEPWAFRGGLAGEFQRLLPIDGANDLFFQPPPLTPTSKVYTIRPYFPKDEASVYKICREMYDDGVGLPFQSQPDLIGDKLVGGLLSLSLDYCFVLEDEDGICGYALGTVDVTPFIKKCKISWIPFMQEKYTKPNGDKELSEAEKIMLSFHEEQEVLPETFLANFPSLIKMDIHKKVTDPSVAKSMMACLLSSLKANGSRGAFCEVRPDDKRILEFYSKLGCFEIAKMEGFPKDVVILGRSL
The experiment in a line: Michaelis-Menten hydrolysis kinetics, absorbance at […] nm. It is filed as biochemical.

Take `COc1ccc(O[C@@H]2O[C@H](CO)[C@@H](O)[C@H](O)[C@H]2NC(C)=O)cc1` [compound 6, para-methoxyphenyl 2-acetamido-2-deoxy-β-D-glucopyranoside]: the “Michaelis-Menten hydrolysis kinetics, absorbance at 296 nm” value was found to be 40.7 μmol s^−1 mg^−1 M^−1.

On to `COc1ccc(O[C@@H]2S[C@H](CO)[C@@H](O)[C@H](O)[C@H]2NC(C)=O)cc1` [compound 7, para-methoxyphenyl 2-acetamido-2-deoxy-5-thio-β-D-glucopyranoside], for which the “Michaelis-Menten hydrolysis kinetics, absorbance at 296 nm” value was 8.1 μmol s^−1 mg^−1 M^−1.
